# Test results published in publication PMC8632988, “Inhibition of SYK and cSrc kinases can protect bone and cartilage in preclinical models of osteoarthritis and rheumatoid arthritis” (Scientific Reports, 2021).
# “And” between values parts separate entries of the source, which are not always exact repeats. Equal entries are not always repeated.
# Legend:
# [1] = test system: Lewis rats, CIA model; test: Collagen-induced semi-established arthritis model in rats; format: in vivo, rat
# Protocol: Rat CIA model was performed was performed at Pharmenterprises, Russia and approved by Ethics Committee of Pharmenterprises. Female Lewis rats with body weight of 164–183 g (Charles River Laboratories, Inc., Wilmington, MA) were injected with porcine type II collagen (Chondrex) emulsified with Freund’s Incomplete Adjuvant (Sigma Aldrich) at two sites at the base of the tail according to standard protocol. On day 7, the rats were boosted with a second subcutaneous injection. On day 6 of the study, rats were randomized by body weight into six groups: a control group of four, and five treatment groups of eight. […] Disease progression was monitored via daily ankle thickness measurements. At study termination on day 16 rats were anesthetized with Isoflurane, bled by vacutainer through the descending aorta to exsanguinate and then euthanized for tissue collection. Hind paws were transected at the level of the medial and lateral malleolus, weighed, and collected for microscopy.
# […]
# [2] = target: T1, BMPR2 (Homo sapiens, UniProt Q13873); test: Kinase selectivity profile assay; format: biochemical; settings: 500 nM; relative to DMSO; read-out: Residual enzymatic activity
# T1 construct: purchased Reaction Biology Corporation
# T1 sequence (Q13873 27-1038): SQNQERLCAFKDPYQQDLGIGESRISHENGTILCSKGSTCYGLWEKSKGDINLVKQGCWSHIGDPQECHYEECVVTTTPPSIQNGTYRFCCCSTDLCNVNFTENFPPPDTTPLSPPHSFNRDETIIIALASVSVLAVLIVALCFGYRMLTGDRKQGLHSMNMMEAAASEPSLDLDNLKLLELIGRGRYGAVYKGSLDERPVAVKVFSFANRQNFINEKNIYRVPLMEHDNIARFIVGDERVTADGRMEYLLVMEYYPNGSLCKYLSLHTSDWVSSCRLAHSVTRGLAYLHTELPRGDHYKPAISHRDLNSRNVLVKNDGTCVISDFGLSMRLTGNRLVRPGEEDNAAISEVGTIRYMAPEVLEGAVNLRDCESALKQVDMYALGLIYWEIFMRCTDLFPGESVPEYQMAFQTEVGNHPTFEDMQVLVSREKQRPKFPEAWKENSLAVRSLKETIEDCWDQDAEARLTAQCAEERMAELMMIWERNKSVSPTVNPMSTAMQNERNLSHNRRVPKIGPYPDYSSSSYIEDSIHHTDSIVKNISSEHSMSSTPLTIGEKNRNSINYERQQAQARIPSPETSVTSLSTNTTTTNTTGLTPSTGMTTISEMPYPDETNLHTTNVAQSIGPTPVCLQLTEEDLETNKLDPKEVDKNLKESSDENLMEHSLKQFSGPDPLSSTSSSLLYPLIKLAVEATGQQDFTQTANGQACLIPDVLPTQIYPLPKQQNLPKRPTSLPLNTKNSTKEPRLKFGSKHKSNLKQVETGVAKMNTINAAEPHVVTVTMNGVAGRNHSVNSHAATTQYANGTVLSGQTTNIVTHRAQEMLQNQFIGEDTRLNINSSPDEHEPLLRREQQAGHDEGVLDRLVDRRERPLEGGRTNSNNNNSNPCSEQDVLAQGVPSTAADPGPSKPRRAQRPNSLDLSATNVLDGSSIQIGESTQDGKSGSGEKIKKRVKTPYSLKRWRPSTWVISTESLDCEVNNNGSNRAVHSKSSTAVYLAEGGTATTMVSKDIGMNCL
# Protocol: (§1) The activity of MT-SYK-03 against cSrc kinase and selectivity profile towards other 341 kinases was determined at Reaction Biology Corporation (Malvern, PA, USA) using the standard kinase assay protocol. […]; unbound phosphate was removed by extensive washing of filters in phosphoric acid. Kinase activity data was expressed as the percent remaining kinase activity in test samples compared to vehicle (dimethyl sulfoxide) reactions based on the radioactivity of reaction products (see Table S2). Experiment was replicated twice.
# [3] = target: T2, CAMK2g (Homo sapiens, UniProt Q13555); test: Kinase selectivity profile assay; format: biochemical; settings: 500 nM; relative to DMSO; read-out: Residual enzymatic activity
# T2 construct: purchased Reaction Biology Corporation
# Protocol: as §1
# [4] = target: T3, FGR (Homo sapiens, UniProt P09769); test: Kinase selectivity profile assay; format: biochemical; settings: 500 nM; relative to DMSO; read-out: Residual enzymatic activity
# T3 construct: purchased Reaction Biology Corporation (assay service)
# Protocol: as §1
# [5] = target: T4, HIPK2 (Homo sapiens, UniProt Q9H2X6); test: Kinase selectivity profile assay; format: biochemical; settings: 500 nM; relative to DMSO; read-out: Residual enzymatic activity
# T4 construct: purchased Reaction Biology Corporation
# Protocol: as §1
# [6] = target: T5, IRR/INSRR (Homo sapiens, UniProt P14616); test: Kinase selectivity profile assay; format: biochemical; settings: 500 nM; relative to DMSO; read-out: Residual enzymatic activity
# T5 construct: purchased Reaction Biology Corporation
# Protocol: as §1
# [7] = target: T6, LIMK2 (Homo sapiens, UniProt P53671); test: Kinase selectivity profile assay; format: biochemical; settings: 500 nM; relative to DMSO; read-out: Residual enzymatic activity
# T6 construct: purchased Reaction Biology Corporation
# Protocol: as §1
# [8] = target: T7, MEK2 (Homo sapiens, UniProt P36507); test: Kinase selectivity profile assay; format: biochemical; settings: 500 nM; relative to DMSO; read-out: Residual enzymatic activity
# T7 construct: purchased Reaction Biology Corporation
# Protocol: as §1
# [9] = target: T8, MELK (Homo sapiens, UniProt Q14680); test: Kinase selectivity profile assay; format: biochemical; settings: 500 nM; relative to DMSO; read-out: Residual enzymatic activity
# T8 construct: purchased Reaction Biology Corporation
# Protocol: as §1
# [10] = target: T9, MKK6 (Homo sapiens, UniProt P52564); test: Kinase selectivity profile assay; format: biochemical; settings: 500 nM; relative to DMSO; read-out: Residual enzymatic activity
# T9 construct: purchased Reaction Biology Corporation
# Protocol: as §1
# [11] = target: T10, MST3/STK24 (Homo sapiens, UniProt Q9Y6E0); test: Kinase selectivity profile assay; format: biochemical; settings: 500 nM; relative to DMSO; read-out: Residual enzymatic activity
# T10 construct: purchased Reaction Biology Corporation
# T10 sequence (Q9Y6E0 whole entry): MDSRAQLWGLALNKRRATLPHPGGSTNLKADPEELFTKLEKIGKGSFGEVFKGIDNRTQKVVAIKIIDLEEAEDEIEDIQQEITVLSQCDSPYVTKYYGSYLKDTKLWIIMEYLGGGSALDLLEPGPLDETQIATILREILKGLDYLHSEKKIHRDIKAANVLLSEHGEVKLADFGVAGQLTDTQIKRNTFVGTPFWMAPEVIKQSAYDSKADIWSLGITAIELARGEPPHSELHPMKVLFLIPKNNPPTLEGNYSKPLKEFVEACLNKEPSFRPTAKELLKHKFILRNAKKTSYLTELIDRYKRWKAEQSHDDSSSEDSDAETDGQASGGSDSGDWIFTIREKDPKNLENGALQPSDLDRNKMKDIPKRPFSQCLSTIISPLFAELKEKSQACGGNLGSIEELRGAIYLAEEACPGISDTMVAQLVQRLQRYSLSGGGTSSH
# Protocol: as §1
# [12] = target: T11, NEK3 (Homo sapiens, UniProt P51956); test: Kinase selectivity profile assay; format: biochemical; settings: 500 nM; relative to DMSO; read-out: Residual enzymatic activity
# T11 construct: purchased Reaction Biology Corporation
# Protocol: as §1
# [13] = target: T12, P38g (Homo sapiens, UniProt P53778); test: Kinase selectivity profile assay; format: biochemical; settings: 500 nM; relative to DMSO; read-out: Residual enzymatic activity
# T12 construct: purchased Reaction Biology Corporation
# T12 sequence (P53778 whole entry): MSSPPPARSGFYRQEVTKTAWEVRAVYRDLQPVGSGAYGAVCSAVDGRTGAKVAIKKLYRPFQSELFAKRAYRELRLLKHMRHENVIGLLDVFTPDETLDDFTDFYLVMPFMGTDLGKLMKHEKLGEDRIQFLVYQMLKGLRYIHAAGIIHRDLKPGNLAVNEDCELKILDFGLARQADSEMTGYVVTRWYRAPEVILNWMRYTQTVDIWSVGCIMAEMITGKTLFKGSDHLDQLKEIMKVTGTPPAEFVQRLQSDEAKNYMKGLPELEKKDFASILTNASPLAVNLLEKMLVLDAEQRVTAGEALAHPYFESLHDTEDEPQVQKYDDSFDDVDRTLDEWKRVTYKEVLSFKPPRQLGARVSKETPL
# Protocol: as §1
# [14] = target: T13, PASK (Homo sapiens, UniProt Q96RG2); test: Kinase selectivity profile assay; format: biochemical; settings: 500 nM; relative to DMSO; read-out: Residual enzymatic activity
# T13 construct: purchased Reaction Biology Corporation
# T13 sequence (Q96RG2 whole entry): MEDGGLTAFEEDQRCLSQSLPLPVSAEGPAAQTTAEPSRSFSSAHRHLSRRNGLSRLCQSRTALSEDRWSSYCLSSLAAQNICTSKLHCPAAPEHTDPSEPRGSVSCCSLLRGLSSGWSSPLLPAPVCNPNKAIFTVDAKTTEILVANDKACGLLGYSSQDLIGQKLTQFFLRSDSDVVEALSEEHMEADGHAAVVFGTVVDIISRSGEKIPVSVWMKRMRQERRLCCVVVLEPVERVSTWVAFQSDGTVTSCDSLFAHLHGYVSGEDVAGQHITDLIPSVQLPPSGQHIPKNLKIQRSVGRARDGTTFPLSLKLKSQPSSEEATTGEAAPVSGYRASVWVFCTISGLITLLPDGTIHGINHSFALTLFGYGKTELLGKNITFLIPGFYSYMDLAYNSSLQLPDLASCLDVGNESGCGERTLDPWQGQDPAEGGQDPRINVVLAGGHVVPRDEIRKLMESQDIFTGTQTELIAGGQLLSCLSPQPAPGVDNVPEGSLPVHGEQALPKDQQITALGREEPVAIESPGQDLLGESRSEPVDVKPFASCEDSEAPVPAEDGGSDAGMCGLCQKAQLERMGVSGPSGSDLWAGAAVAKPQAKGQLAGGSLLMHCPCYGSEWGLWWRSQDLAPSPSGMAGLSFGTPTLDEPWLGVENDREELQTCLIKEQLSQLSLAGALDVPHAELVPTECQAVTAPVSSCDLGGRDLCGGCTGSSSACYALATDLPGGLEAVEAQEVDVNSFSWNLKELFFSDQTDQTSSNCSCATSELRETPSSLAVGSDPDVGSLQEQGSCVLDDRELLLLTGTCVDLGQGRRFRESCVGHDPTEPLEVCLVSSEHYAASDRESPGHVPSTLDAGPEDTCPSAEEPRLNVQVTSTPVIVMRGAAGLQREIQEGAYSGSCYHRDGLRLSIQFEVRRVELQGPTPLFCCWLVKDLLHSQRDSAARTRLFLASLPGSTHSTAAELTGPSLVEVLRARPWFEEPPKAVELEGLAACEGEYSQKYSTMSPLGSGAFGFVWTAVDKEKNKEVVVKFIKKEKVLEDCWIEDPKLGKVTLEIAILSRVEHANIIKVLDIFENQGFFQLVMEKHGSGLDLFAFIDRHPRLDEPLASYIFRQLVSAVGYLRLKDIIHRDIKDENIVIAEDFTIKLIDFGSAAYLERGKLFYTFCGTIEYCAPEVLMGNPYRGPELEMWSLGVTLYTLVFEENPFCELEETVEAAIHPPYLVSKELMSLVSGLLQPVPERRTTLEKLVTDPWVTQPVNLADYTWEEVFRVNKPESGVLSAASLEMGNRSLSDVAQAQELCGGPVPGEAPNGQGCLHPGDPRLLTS
# Protocol: as §1
# [15] = target: T14, PKN1/PRK1 (Homo sapiens, UniProt Q16512); test: Kinase selectivity profile assay; format: biochemical; settings: 500 nM; relative to DMSO; read-out: Residual enzymatic activity
# T14 construct: purchased Reaction Biology Corporation
# T14 sequence (Q16512 whole entry): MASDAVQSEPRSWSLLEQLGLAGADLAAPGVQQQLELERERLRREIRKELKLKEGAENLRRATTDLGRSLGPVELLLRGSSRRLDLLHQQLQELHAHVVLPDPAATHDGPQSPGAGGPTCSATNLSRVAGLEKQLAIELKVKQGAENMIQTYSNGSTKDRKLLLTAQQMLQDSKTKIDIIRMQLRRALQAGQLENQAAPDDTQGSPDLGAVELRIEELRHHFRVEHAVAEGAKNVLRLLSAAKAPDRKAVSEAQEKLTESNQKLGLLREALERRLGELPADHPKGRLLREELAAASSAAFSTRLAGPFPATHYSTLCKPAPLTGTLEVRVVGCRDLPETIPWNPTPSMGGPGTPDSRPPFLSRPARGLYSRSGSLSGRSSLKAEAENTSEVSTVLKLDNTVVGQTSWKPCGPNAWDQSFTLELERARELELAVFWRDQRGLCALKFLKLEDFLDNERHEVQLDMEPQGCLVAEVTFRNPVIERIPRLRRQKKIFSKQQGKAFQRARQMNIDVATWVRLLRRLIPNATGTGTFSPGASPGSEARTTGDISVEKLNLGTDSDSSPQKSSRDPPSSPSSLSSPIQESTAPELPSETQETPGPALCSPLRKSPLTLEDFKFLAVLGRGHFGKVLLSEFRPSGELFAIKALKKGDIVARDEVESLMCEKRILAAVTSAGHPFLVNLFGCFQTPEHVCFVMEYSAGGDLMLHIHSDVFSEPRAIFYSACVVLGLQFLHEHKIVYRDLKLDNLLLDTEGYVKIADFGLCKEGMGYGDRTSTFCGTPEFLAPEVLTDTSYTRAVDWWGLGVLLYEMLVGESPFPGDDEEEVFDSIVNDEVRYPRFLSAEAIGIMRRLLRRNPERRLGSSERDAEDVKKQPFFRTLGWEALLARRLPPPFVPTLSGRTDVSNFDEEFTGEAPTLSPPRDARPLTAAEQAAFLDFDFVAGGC
# Protocol: as §1
# [16] = target: T15, STK32B/YANK2 (Homo sapiens, UniProt Q9NY57); test: Kinase selectivity profile assay; format: biochemical; settings: 500 nM; relative to DMSO; read-out: Residual enzymatic activity
# T15 construct: purchased Reaction Biology Corporation
# T15 sequence (Q9NY57 whole entry): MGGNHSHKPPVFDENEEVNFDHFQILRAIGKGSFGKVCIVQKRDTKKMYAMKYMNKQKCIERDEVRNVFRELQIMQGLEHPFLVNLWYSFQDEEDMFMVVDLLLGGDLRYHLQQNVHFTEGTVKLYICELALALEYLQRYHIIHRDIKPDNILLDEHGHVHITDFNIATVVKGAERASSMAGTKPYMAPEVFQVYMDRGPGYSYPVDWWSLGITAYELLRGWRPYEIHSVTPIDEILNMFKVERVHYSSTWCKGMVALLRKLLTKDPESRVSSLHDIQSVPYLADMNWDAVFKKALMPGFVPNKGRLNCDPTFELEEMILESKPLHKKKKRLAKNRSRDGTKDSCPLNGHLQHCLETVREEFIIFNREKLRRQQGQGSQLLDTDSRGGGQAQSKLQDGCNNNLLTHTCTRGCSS
# Protocol: as §1
# [17] = target: T16, ULK3 (Homo sapiens, UniProt Q6PHR2); test: Kinase selectivity profile assay; format: biochemical; settings: 500 nM; relative to DMSO; read-out: Residual enzymatic activity
# T16 construct: purchased Reaction Biology Corporation
# Protocol: as §1
# [18] = target: T17, c-Kit (Homo sapiens, UniProt P10721); test: Kinase selectivity profile assay; format: biochemical; settings: 500 nM; relative to DMSO; read-out: Residual enzymatic activity
# T17 construct: purchased Reaction Biology Corporation
# Protocol: as §1
# [19] = target: T18, DYRK4 (Homo sapiens, UniProt Q9NR20); test: Kinase selectivity profile assay; format: biochemical; settings: 500 nM; relative to DMSO; read-out: Residual enzymatic activity
# T18 construct: purchased Reaction Biology Corporation
# T18 sequence (Q9NR20 whole entry): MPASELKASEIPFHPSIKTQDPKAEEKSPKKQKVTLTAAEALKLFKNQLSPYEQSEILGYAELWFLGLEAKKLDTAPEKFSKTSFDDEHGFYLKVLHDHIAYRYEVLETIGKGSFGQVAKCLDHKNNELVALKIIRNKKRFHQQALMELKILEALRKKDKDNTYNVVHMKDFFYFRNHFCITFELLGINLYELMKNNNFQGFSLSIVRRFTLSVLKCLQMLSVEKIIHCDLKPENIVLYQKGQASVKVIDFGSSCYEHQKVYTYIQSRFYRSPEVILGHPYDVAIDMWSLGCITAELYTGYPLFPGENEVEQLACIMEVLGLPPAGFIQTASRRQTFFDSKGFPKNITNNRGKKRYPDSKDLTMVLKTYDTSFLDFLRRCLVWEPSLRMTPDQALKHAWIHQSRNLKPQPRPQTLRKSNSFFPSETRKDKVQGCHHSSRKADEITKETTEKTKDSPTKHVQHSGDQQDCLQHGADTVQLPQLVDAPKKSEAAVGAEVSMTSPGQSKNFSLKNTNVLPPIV
# Protocol: The activity of MT-SYK-03 against cSrc kinase and selectivity profile towards other 341 kinases was determined at Reaction Biology Corporation (Malvern, PA, USA) using the standard kinase assay protocol. […] Kinase activity data was expressed as the percent remaining kinase activity in test samples compared to vehicle (dimethyl sulfoxide) reactions based on the radioactivity of reaction products (see Table S2). Experiment was replicated twice.
# [20] = ankle, day 16, MTX 0.075 mg/kg PO QD + test article vehicle PO BID, group mean
# [21] = ankle, day 16, MTX 0.075 mg/kg PO QD + test article vehicle PO BID, individual joint (animal, R/L)
# [22] = ankle, day 16, MTX 0.075 mg/kg PO QD + test article vehicle PO BID, vs vehicle
# [23] = knee, day 16, MTX 0.075 mg/kg PO QD + test article vehicle PO BID, group mean
# [24] = knee, day 16, MTX 0.075 mg/kg PO QD + test article vehicle PO BID, individual joint (animal, R/L)
# [25] = knee, day 16, MTX 0.075 mg/kg PO QD + test article vehicle PO BID, vs vehicle
smiles,measurement,setting,value
"CN(Cc1cnc2nc(N)nc(N)c2n1)c1ccc(C(=O)N[C@@H](CCC(=O)O)C(=O)O)cc1 [MTX, methotrexate, reference compound]","Bone Resorption score, Mean",[1]; [20],1.19
same,"Cartilage Damage score, Mean",[1]; [20],2.00
same,"Inflammation score, Mean",[1]; [20],3.88
same,"Pannus score, Mean",[1]; [20],1.19
same,"Periosteal Bone Formation score, Mean",[1]; [20],0.63
same,"Periosteal Naïve Bone Width Actual, Mean",[1]; [20],126.00 μm
same,"Summed Histopathology Scores, Mean",[1]; [20],8.88
same,Bone Resorption score (0=normal to 5=severe),[1]; [21],2 and 0 and 1 and 0.5
same,Cartilage Damage score (0=normal to 5=severe),[1]; [21],3 and 0.5 and 2
same,Inflammation score (0=normal to 5=severe),[1]; [21],5 and 1 and 4 and 3 and 2
same,Pannus score (0=normal to 5=severe),[1]; [21],2 and 0 and 1 and 0.5
same,Periosteal Bone Formation score (0=normal to 5=severe),[1]; [21],1 and 0 and 0.5
same,Periosteal Naïve Bone Width 16x Measure,[1]; [21],3 and 4 and 0 and 2 and 1
same,Periosteal Naïve Bone Width Actual,[1]; [21],189 μm and 252 μm and 0 μm and 126 μm and 63 μm
same,Summed Histopathology Scores,[1]; [21],13 and 1.5 and 9.5 and 8.5 and 6.5 and 12 and 4
same,"Periosteal Naïve Bone Width, ANOVA to Vehicle","[1]; ankle, day 16, MTX 0.075 mg/kg PO QD + test article vehicle PO BID, p value",p < 0.05
same,"Bone Resorption score, % inhibition",[1]; [22],19%
same,"Cartilage Damage score, % inhibition",[1]; [22],17%
same,"Inflammation score, % inhibition",[1]; [22],14%
same,"Pannus score, % inhibition",[1]; [22],19%
same,"Periosteal Bone Formation score, % inhibition",[1]; [22],51%
same,"Periosteal Naïve Bone Width, % inhibition",[1]; [22],44%
same,"Summed Histopathology Scores, % inhibition",[1]; [22],20%
same,"Bone Resorption score, Mean",[1]; [23],0.28
same,"Cartilage Damage score, Mean",[1]; [23],0.66
same,"Inflammation score, Mean",[1]; [23],2.03
same,"Pannus score, Mean",[1]; [23],0.44
same,"Summed Histopathology Scores, Mean",[1]; [23],3.41
same,Bone Resorption score (0=normal to 5=severe),[1]; [24],0.5 and 0 and 1
same,Cartilage Damage score (0=normal to 5=severe),[1]; [24],1 and 0.5 and 0 and 2
same,Inflammation score (0=normal to 5=severe),[1]; [24],3 and 0.5 and 1 and 0 and 5 and 4 and 2
same,Pannus score (0=normal to 5=severe),[1]; [24],0.5 and 0 and 1
same,Summed Histopathology Scores,[1]; [24],5 and 4.5 and 0.5 and 2 and 1 and 0 and 9 and 6 and 5.5 and 3
same,"Bone Resorption score, % inhibition",[1]; [25],61%
same,"Cartilage Damage score, % inhibition",[1]; [25],50%
same,"Inflammation score, % inhibition",[1]; [25],36%
same,"Pannus score, % inhibition",[1]; [25],42%
same,"Summed Histopathology Scores, % inhibition",[1]; [25],43%
same,Decrease of periosteal bone width in knee joints,"[1]; rat CIA, MTX 0.075 mg/kg PO QD",~ 43%
same,"Histopathology scores for cartilage damage and bone resorption, ankles and knees","[1]; rat CIA, day 16",did not show statistical significance for any parameter
"COc1cc(Nc2ncc(F)c(Nc3ccc4c(n3)NC(=O)C(C)(C)O4)n2)cc(OC)c1OC [R406, reference compound]",remaining activity at 0.5 µM,[2],71.1%
same,remaining activity at 0.5 µM,[3],101%
same,remaining activity at 0.5 µM,[4],15.7%
same,remaining activity at 0.5 µM,[5],94.9%
same,remaining activity at 0.5 µM,[6],73.6%
same,remaining activity at 0.5 µM,[7],77.5%
same,remaining activity at 0.5 µM,[8],83.5%
same,remaining activity at 0.5 µM,[9],54.7%
same,remaining activity at 0.5 µM,[10],112%
same,remaining activity at 0.5 µM,[11],95.6%
same,remaining activity at 0.5 µM,[12],19.2%
same,remaining activity at 0.5 µM,[13],90.5%
same,remaining activity at 0.5 µM,[14],106%
same,remaining activity at 0.5 µM,[15],62.6%
same,remaining activity at 0.5 µM,[16],92%
same,remaining activity at 0.5 µM,[17],20.3%
same,remaining activity at 0.5 µM,[18],37.1%
same,remaining activity at 0.5 µM,[19],77.1%
